Assay [1] concerns caterpillars of the armyworm (Spodoptera frugiperda). As to the kind of experiment: Spodoptera frugiperda spray test (SPODFR). Type of assay: in vivo. Particulars: maize leaf discs, after 7 days. The gist of the method: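 Maize leaf discs sprayed with compound in acetone/DMF with alkylaryl polyglycol ether emulsifier (1000 ppm) in water, dried, then infested with armyworm caterpillars. Mortality (%) scored after 7 days; 100% = all caterpillars killed, 0% = none killed.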

The subject of assay [2] is cattle ticks (Boophilus microplus) Parkhurst strain, SP-resistant. As to the kind of experiment: Boophilus microplus dip test (BOOPMI Dip). In kind it is in vivo. Particulars: application rate 100 ppm, assessed after 7 days. The gist of the method: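 Adult engorged female SP-resistant Parkhurst ticks (8–10) were fully immersed in compound diluted in water from a DMSO solution, then kept in a climate-controlled room. After 7 days, fertile egg-laying was scored, with larval hatching checked at about 42 days; 100% efficacy means no fertile eggs.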

Assay [3] concerns adult houseflies (Musca domestica). Nature of the assay: Musca domestica test (MUSCDO). In kind it is in vivo. The conditions noted are these: application rate 100 ppm; after 2 days. The method in brief:
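Compound dissolved in DMSO and diluted with water to the test concentration, applied with sugar solution on a sponge; 10 adult houseflies per vessel. Mortality scored after 2 days as % kill (100% all dead, 0% none).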

Assay [4] concerns adult cat fleas (Ctenocephalides felis). As to the kind of experiment: Ctenocephalides felis oral test (CTECFE). In kind it is in vivo. Particulars: application rate 100 ppm in citrated cattle blood; after 2 days. The gist of the method: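 About 20 unfed adult cat fleas fed through parafilm membrane on citrated cattle blood containing compound (DMSO stock diluted in blood to test concentration). Kill % scored after 2 days (100% = all fleas dead).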

The test system of assay [5] is larvae of the mustard beetle (Phaedon cochleariae). As to the kind of experiment: Phaedon cochleariae spray test (PHAECO). Type of assay: in vivo. Particulars: Chinese cabbage leaf discs, after 7 days. The gist of the method: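 Compound dissolved in acetone/dimethylformamide with alkylaryl polyglycol ether emulsifier, made up in water containing 1000 ppm emulsifier, then diluted to test concentrations and sprayed against mustard beetle larvae. Efficacy (% larvae killed) scored after 7 days.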

The test system of assay [6] is Tick nymphs (Amblyomma hebraeum). Nature of the assay: Amblyomma hebraeum test (AMBYHE), tick nymphs immersed. In kind it is in vivo. Particulars: application rate 100 ppm; immersed one minute; after 42 days. As to the method:
A. Amblyomma hebaraeum Test (AMBYHE)
Solvent: dimethyl sulphoxide
To produce a suitable preparation of active compound, 10 mg of active compound are mixed with 0.5 ml of dimethyl sulfoxide, and the concentrate is diluted with water to the desired concentration.
Tick nymphs (Amblyomma hebraeum) are placed into perforated plastic beakers and immersed in the desired concentration for one minute. The ticks are transferred on filter paper into a Petri dish and stored in a climate-controlled cabinet.
After 42 days, the kill in % is determined. 100% means that all of the ticks have been killed; 0% means that none of the ticks have been killed.

Assay [7] deals with bont tick nymphs (Amblyomma hebraeum). Particulars: after 48 h.
The subject of assay [8] is adult dog ticks (Rhipicephalus sanguineus). As to the kind of experiment: Rhipicephalus sanguineus in vitro contact test with adult brown dog ticks (T2). Particulars: after 48 h. The method in brief:
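Acetone solutions coated onto test tube walls and floor, giving 5 μg/cm^2 at 900 ppm. Five to ten adult ticks held per tube in the dark at room temperature for 48 h, then heated at 45-50° C for up to 5 min; efficacy is the percentage of dead or moribund ticks unable to climb away.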

The subject of assay [9] is engorged adult female cattle ticks (Boophilus microplus). As to the kind of experiment: Boophilus microplus injection test (BOOPMI Inj). Particulars: application rate 20 μg/animal; injection into abdomen; assessed after 7 days. Type of assay: in vivo. The method in brief:
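DMSO solution of compound (1 μl) injected into the abdomen of 5 engorged adult female ticks, which are then held in a climate-controlled room. After 7 days, efficacy is scored from laying of fertile eggs, with unclear eggs kept until larval hatch (~42 days); 100% means no fertile eggs, 0% all fertile.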

In assay [10] the test system is L1 larvae of the Australian sheep blowfly (Lucilia cuprina). Nature of the assay: Lucilia cuprina test (LUCICU). In kind it is in vivo. The conditions noted are these: application rate 100 ppm; after 2 days. The gist of the method:
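About 20 L1 larvae placed in a vessel with minced horsemeat plus compound (DMSO concentrate diluted with water to the desired concentration). Kill in % scored after 2 days, 100% meaning all larvae dead.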

Assay [11] has as its system adult cat fleas (Ctenocephalides felis). Nature of the assay: Ctenocephalides felis in vitro contact test with adult cat fleas (T1). The conditions noted are these: after 48 h. The method in brief:
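Test compound was dissolved in acetone p.a. (9 mg per 1 ml) and diluted as needed. 250 μl was spread evenly over the inner walls and floor of a 25 ml test tube by rotating on an orbital shaker for 2 h at 30 rpm. Once the solvent evaporated, 5-10 adult Ctenocephalides felis were added. Tubes were capped with a perforated plastic lid and kept horizontal at room temperature and ambient humidity.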

Assay [12] deals with greenhouse red spider mite (Tetranychus urticae). Nature of the assay: Tetranychus urticae spray test, OP-resistant (TETRUR). Type of assay: in vivo. The conditions noted are these: bean leaf discs, after 6 days. The gist of the method:
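Bean leaf discs carrying all stages of OP-resistant Tetranychus urticae were sprayed with compound formulated in acetone/dimethylformamide and diluted in water with 1000 ppm alkylaryl polyglycol ether emulsifier. Mortality (% efficacy, 100% = all mites killed) scored after 6 days.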

Assay [13] has as its system green peach aphid (Myzus persicae). Nature of the assay: Myzus persicae spray test (MYZUPE). In kind it is in vivo. The conditions noted are these: application rate 500 g/ha; Chinese cabbage leaf discs; after 6 days. The gist of the method:
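Chinese cabbage leaf discs infested with all aphid stages sprayed with compound in acetone/DMF with alkylaryl polyglycol ether emulsifier in water. Efficacy (% aphids killed; 100% all dead, 0% none) scored after 6 days.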

The subject of assay [14] is adult castor bean ticks (Ixodes ricinus). As to the kind of experiment: Ixodes ricinus in vitro contact test with adult castor bean ticks (T3). The conditions noted are these: application rate 5 μg/cm^2; after 48 h. As to the method:
T3. Ixodes ricinus-in vitro Contact Tests with Adult Castor Bean Ticks
For the coating of the test tubes, initially 9 mg of active compound are dissolved in 1 ml of acetone p.a. and then diluted with acetone p.a. to the desired concentration. By turning and rocking on an orbital shaker (2 h of rocking rotation at 30 rpm), 250 μl of the solution are distributed homogeneously on the internal walls and the floor of a 25 ml test tube. At 900 ppm active compound solution and 44.7 cm^2 internal surface, an area dose of 5 μg/cm^2 is achieved for homogeneous distribution.
After evaporation of the solvent, the tubes are populated with 5-10 adult castor bean ticks (Ixodes ricinus), sealed with a perforated plastic lid and incubated in a horizontal position in the dark at 22° C. and 90% humidity in a climate-controlled cabinet. After 48 h, the efficacy is determined. To this end, the ticks are knocked to the floor of the tube and incubated on a hotplate at 45-50° C. for at most 5 min. Ticks which remain motionless on the floor or move in an uncoordinated manner such that they are not able to deliberately avoid the heat by climbing upwards are considered to be dead or moribund.
An efficacy of 100% means that all ticks were dead or moribund. 0% efficacy means that none of the ticks had been damaged.

Structures are written as SMILES.

As to `Cn1nc(C(F)(F)C(F)(F)F)c(C(F)(F)F)c1-n1cc(-c2cc(C(=O)NC3CC3)c(F)cc2Cl)cn1` [Ic-49], the efficacy in % turned out to be 100% in assay [1] (application rate 500 g/ha), 100% in [5] (application rate 500 g/ha), 90% in assay [12] (application rate 500 g/ha) and 90% in assay [13]. The “efficacy (laying of fertile eggs)” value in assay [2] and in assay [9] was 100% throughout. Also, the “efficacy (kill in %)” value in [3], in assay [4], in [6] and in assay [10] was 100% throughout. The “efficacy (dead or moribund ticks)” value in [7], in [8] (application rate 1 μg/cm^2) and in assay [8] (application rate 5 μg/cm^2) was 100% each time. Also, the “efficacy (dead or moribund fleas)” value in assay [11] (application rate 1 μg/cm^2) and in [11] (application rate 5 μg/cm^2) was 100% each time.
For the molecule `Cn1nc(C(F)(F)C(F)(F)F)c(C(F)(F)F)c1-n1cc(-c2cc(F)c(F)c(C(=O)NC3(C#N)CC3)c2)cn1` [Ic-47], the efficacy in % in [1] (application rate 500 g/ha), in assay [5] (application rate 500 g/ha) and in assay [13] was 100% throughout. Moreover, the “efficacy (laying of fertile eggs)” value in [2] and in assay [9] was 100% throughout. Further, the “efficacy (kill in %)” value in assay [3], in assay [4], in assay [6] and in [10] was 100% each time. Also, the “efficacy (dead or moribund ticks)” value in assay [7], in assay [8] (application rate 1 μg/cm^2), in [8] (application rate 5 μg/cm^2) and in assay [14] was 100% throughout. Also, the “efficacy (dead or moribund fleas)” value in assay [11] (application rate 1 μg/cm^2) and in assay [11] (application rate 5 μg/cm^2) was 100% throughout.
As for `Cn1nc(C(F)(F)C(F)(F)F)c(C(F)(F)F)c1-n1cc(-c2cc(Cl)c(Cl)c(C(=O)NC3(C#N)CC3)c2)cn1` [Ic-95], the efficacy in % in [1] (application rate 500 g/ha) is recorded as 100%; in assay [5] (application rate 500 g/ha), 100%; in assay [12] (application rate 500 g/ha) it was 100%; in assay [13] it was 90%. Also, the “efficacy (laying of fertile eggs)” value in [2] and in assay [9] was 100% each time. Besides, the “efficacy (kill in %)” value in [3], in [4], in assay [6] and in assay [10] was 100% throughout. Besides, the “efficacy (dead or moribund ticks)” value in [7], in [8] (application rate 1 μg/cm^2) and in [8] (application rate 5 μg/cm^2) was 100% each time. Besides, the “efficacy (dead or moribund fleas)” value in assay [11] (application rate 1 μg/cm^2) and in assay [11] (application rate 5 μg/cm^2) was 100% throughout.
Regarding `Cn1nc(C(F)(F)C(F)(F)F)c(C(F)(F)F)c1-n1cc(-c2cnc(Cl)c(C(=O)NC3(C#N)CC3)c2)cn1` [Ic-83], the efficacy in % in [1] (application rate 100 g/ha), in [5] (application rate 100 g/ha) and in [12] (application rate 100 g/ha) was 100% each time. For the same molecule, the “efficacy (laying of fertile eggs)” value in assay [2] and in assay [9] was 100% throughout. Besides, the “efficacy (kill in %)” value in [3], in assay [4], in assay [6] and in assay [10] was 100% throughout. Besides, the “efficacy (dead or moribund ticks)” value in assay [7], in assay [8] (application rate 1 μg/cm^2), in assay [8] (application rate 5 μg/cm^2) and in [14] was 100% each time. Besides, the “efficacy (dead or moribund fleas)” value in assay [11] (application rate 1 μg/cm^2) and in assay [11] (application rate 5 μg/cm^2) was 100% throughout.
With `Cc1ncc(-c2cnn(-c3c(C(F)(F)F)c(C(F)(F)C(F)(F)F)nn3C)c2)cc1C(=O)NC1(C#N)CC1` [Ic-85], the efficacy in % in assay [1] (application rate 500 g/ha), in [5] (application rate 500 g/ha), in [12] (application rate 500 g/ha) and in assay [13] was 100% each time. Further, the “efficacy (laying of fertile eggs)” value in [2] and in [9] was 100% throughout. Also, the “efficacy (kill in %)” value in [3], in [4], in assay [6] and in assay [10] was 100% throughout. Besides, the “efficacy (dead or moribund ticks)” value in assay [8] (application rate 1 μg/cm^2) and in assay [8] (application rate 5 μg/cm^2) was 100% each time. The “efficacy (dead or moribund fleas)” value in assay [11] (application rate 1 μg/cm^2) and in assay [11] (application rate 5 μg/cm^2) was 100% throughout.
Turning to `Cc1cc(-c2cnn(-c3c(C(F)(F)F)c(C(F)(F)C(F)(F)F)nn3C)c2)cc(C(=O)NC2(C#N)CC2)c1Cl` [Ic-91], the efficacy in % in assay [1] (application rate 500 g/ha), in assay [5] (application rate 500 g/ha), in assay [12] (application rate 500 g/ha) and in assay [13] was 100% in each case. In addition, the “efficacy (laying of fertile eggs)” value in assay [2] and in assay [9] was 100% throughout. Further, the “efficacy (kill in %)” value in assay [3], in assay [4], in assay [6] and in assay [10] was 100% in each case. In addition, the “efficacy (dead or moribund ticks)” value in [8] (application rate 5 μg/cm^2) was found to be 80%. Also, the “efficacy (dead or moribund fleas)” value in assay [11] (application rate 1 μg/cm^2) and in [11] (application rate 5 μg/cm^2) was 100% throughout.

The values are drawn from patent publication US9487489B2, “Halogen-substituted pyrazole derivatives as pest-control agents” (BAYER CROPSCIENCE AKTIENGESELLSCHAFT, priority 2013, dated 2016).
